Data: US20100267561A1, “HERBICIDAL PYRIDAZINONE DERIVATIVES” (priority 2007, published 2010)

What was measured:
Assay type in all cases: in vivo
[1] = tested on: bermudagrass (Cynodon dactylon); assay: Test B pre-/postemergence plant response
Summary of the method: (§1)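 Seeds were sown and sprayed preemergence, while plants at 2 to 18 cm (1- to 4-leaf stage) got postemergence sprays. Compounds were formulated in a non-phytotoxic solvent mixture with surfactant. After 13 to 15 days in a greenhouse, injury was rated visually against untreated controls, 0 (no effect) to 100 (complete control).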

[2] = tested on: Italian ryegrass (Lolium multiflorum); assay: Test B pre-/postemergence plant response
Summary of the method: as §1

[3] = tested on: johnsongrass (Sorghum halepense); assay: Test B pre-/postemergence plant response
Summary of the method: as §1

[4] = tested on: winter barley (Hordeum vulgare); assay: Test B postemergence plant response; conditions: for Barley plant response rating: postemergence; for Plant response rating, Barley: Postemergence, scale 0 to 100, 0 no effect, 100 complete control
Description: (§2) At the same time, plants selected from these crop and weed species and also winter barley (Hordeum vulgare), canarygrass (Phalaris minor), chickweed (Stellaria media) and windgrass (Apera spica-venti) were treated with postemergence applications of some of the test chemicals formulated in the same manner. Plants ranged in height from 2 to 18 cm (1- to 4-leaf stage) for postemergence treatments.
(§3) Plant species in the flooded paddy test consisted of rice (Oryza sativa), umbrella sedge (Cyperus difformis), ducksalad (Heteranthera limosa) and barnyardgrass (Echinochloa crus-galli) grown to the 2-leaf stage for testing. At time of treatment, test pots were flooded to 3 cm above the soil surface, treated by application of test compounds directly to the paddy water, and then maintained at that water depth for the duration of the test. Treated plants and controls were maintained in a greenhouse for 13 to 15 days, after which time all species were compared to controls and visually evaluated. Plant response ratings, summarized in Table B, are based on a scale of 0 to 100 where 0 is no effect and 100 is complete control. A dash (-) response means no test result.

[5] = tested on: canarygrass (Phalaris minor); assay: Test B postemergence plant response; conditions: for Canarygrass plant response rating: postemergence, 0-100 scale; for Plant response rating, Canarygrass: Postemergence
Description: as §2, §3

[6] = tested on: windgrass (Apera spica-venti); assay: Test B postemergence plant response; conditions: for Windgrass plant response rating: postemergence, 0-100 scale; for Plant response rating, Windgrass: Postemergence
Description: as §2, §3

[7] = tested on: chickweed (Stellaria media); assay: Test B postemergence plant response; conditions: for Chickweed plant response rating: postemergence, 0-100 scale; for Plant response rating, Chickweed: Postemergence
Description: as §2, §3

[8] = tested on: large crabgrass (Digitaria sanguinalis); assay: Test A pre-/postemergence plant response
Summary of the method: (§4)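 Seeds sown in loam–sand blend; test chemicals in non-phytotoxic solvent with surfactant applied preemergence as directed soil spray and, concurrently, postemergence to plants 2–10 cm tall at one- to two-leaf stage. Greenhouse ~10 days, then visual injury rating vs untreated controls on 0–100 scale (0 = no effect, 100 = complete control).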

[9] = tested on: barnyardgrass (Echinochloa crus-galli); assay: Test A pre-/postemergence plant response
Summary of the method: as §4

corn (Zea mays) = assay: Test A pre-/postemergence plant response
Summary of the method: as §4

[10] = tested on: pigweed (Amaranthus retroflexus); assay: Test A pre-/postemergence plant response
Summary of the method: as §4

[11] = 8 g ai/ha, postemergence, 0-100 scale
[12] = Postemergence, 31 g ai/ha, scale 0 to 100
[13] = Postemergence, 62 g ai/ha, scale 0 to 100, 0 no effect, 100 complete control
[14] = Preemergence, 8 g ai/ha, scale 0 to 100 (0 no effect, 100 complete control)
[15] = Preemergence, 16 g ai/ha, scale 0 to 100 (0 no effect, 100 complete control)
[16] = Preemergence, 31 g ai/ha, scale 0 to 100 (0 no effect, 100 complete control)
[17] = Preemergence, 62 g ai/ha, 0 to 100 scale, 0 no effect, 100 complete control
[18] = 16 g ai/ha, postemergence, 0-100 scale
[19] = Preemergence, 8 g ai/ha, scale 0 to 100
[20] = Preemergence, 16 g ai/ha, scale 0 to 100
[21] = 62 g ai/ha, scale 0 to 100, 0 no effect, 100 complete control
[22] = Postemergence, 31 g ai/ha, 0 to 100 scale, 0 no effect, 100 complete control
[23] = Postemergence, 125 g ai/ha, 0 to 100 scale, 0 no effect, 100 complete control
[24] = Preemergence, 31 g ai/ha, 0 to 100 scale, 0 is no effect, 100 is complete control
[25] = Preemergence, 125 g ai/ha, 0 to 100 scale (0 no effect, 100 complete control)

CCCc1cc(-c2ccc(Cl)cc2)nn1-c1c(O)cnn(C)c1=O [Compound 76]
Bermudagrass plant response rating [1, 11]: 70 | Plant response rating, Bermudagrass ([1]; Postemergence, 16 g ai/ha, scale 0 to 100): 80 | Plant response rating, Bermudagrass [1, 12]: 85 | Plant response rating, Bermudagrass [1, 13]: 90 | Bermudagrass plant response rating [1, 14]: 0 | Bermudagrass plant response rating [1, 15]: 20 | Plant response rating, Bermudagrass [1, 16]: 100 | Plant response rating, Bermudagrass [1, 17]: 100 | Ryegrass, Italian plant response rating [2, 11]: 65 | Ryegrass, Italian plant response rating [2, 18]: 98 | Plant response rating, Ryegrass, Italian [2, 12]: 100 | Plant response rating, Ryegrass, Italian [2, 13]: 100 | Plant response rating, Ryegrass, Italian [2, 16]: 95 | Plant response rating, Ryegrass, Italian [2, 17]: 95 | Ryegrass, Italian plant response rating [2, 19]: 75 | Ryegrass, Italian plant response rating [2, 20]: 75 | Johnsongrass plant response rating [3, 11]: 65 | Johnsongrass plant response rating [3, 18]: 75 | Plant response rating, Johnsongrass [3, 12]: 95 | Plant response rating, Johnsongrass [3, 13]: 98 | Plant response rating, Johnsongrass [3, 16]: 70 | Plant response rating, Johnsongrass [3, 17]: 85 | Johnsongrass plant response rating [3, 19]: 0 | Johnsongrass plant response rating [3, 20]: 0 | Barley plant response rating ([4]; 8 g ai/ha, 0-100 scale): 0 | Plant response rating, Barley ([4]; 16 g ai/ha): 0 | Plant response rating, Barley ([4]; 31 g ai/ha): 5 | Plant response rating, Barley ([4]; 62 g ai/ha): 25 | Canarygrass plant response rating ([5]; 8 g ai/ha): 45 | Plant response rating, Canarygrass ([5]; 16 g ai/ha, scale 0 to 100): 60 | Plant response rating, Canarygrass ([5]; 31 g ai/ha, scale 0 to 100): 90 | Plant response rating, Canarygrass [5, 21]: 98 | Windgrass plant response rating ([6]; 8 g ai/ha): 30 | Windgrass plant response rating ([6]; 16 g ai/ha): 80 | Plant response rating, Windgrass ([6]; 31 g ai/ha, scale 0 to 100): 80 | Plant response rating, Windgrass [6, 21]: 90 | Chickweed plant response rating ([7]; 8 g ai/ha): 0 | Plant response rating, Chickweed ([7]; 16 g ai/ha, scale 0 to 100): 0 | Plant response rating, Chickweed ([7]; 31 g ai/ha, scale 0 to 100): 0 | Plant response rating, Chickweed [7, 21]: 0 | Plant response rating, Crabgrass, Large [8, 22]: 20 | Plant response rating, Crabgrass, Large [8, 23]: 100 | Plant response rating, Crabgrass, Large [8, 24]: 20 | Plant response rating, Crabgrass, Large [8, 25]: 80 | Plant response rating, Barnyardgrass [9, 22]: 90 | Plant response rating, Barnyardgrass [9, 23]: 100 | Plant response rating, Barnyardgrass [9, 24]: 40 | Plant response rating, Barnyardgrass [9, 25]: 100 | Plant response rating, Corn (corn (Zea mays); [22]): 20 | Plant response rating, Corn (corn (Zea mays); [23]): 100 | Plant response rating, Corn (corn (Zea mays); [24]): 0 | Plant response rating, Corn (corn (Zea mays); [25]): 50 | Plant response rating, Pigweed [10, 22]: 0 | Plant response rating, Pigweed [10, 23]: 0 | Plant response rating, Pigweed [10, 24]: 0 | Plant response rating, Pigweed [10, 25]: 0

COc1nn(C)c(=O)c(-n2nc(-c3ccc(Br)cc3)cc2C)c1O [Compound 82]
Bermudagrass plant response rating [1, 11]: 98 | Bermudagrass plant response rating [1, 18]: 100 | Plant response rating, Bermudagrass [1, 12]: 100 | Plant response rating, Bermudagrass [1, 13]: 100 | Bermudagrass plant response rating [1, 14]: 90 | Bermudagrass plant response rating [1, 15]: 100 | Plant response rating, Bermudagrass [1, 16]: 100 | Plant response rating, Bermudagrass [1, 17]: 100 | Ryegrass, Italian plant response rating [2, 11]: 98 | Ryegrass, Italian plant response rating [2, 18]: 98 | Plant response rating, Ryegrass, Italian [2, 12]: 100 | Plant response rating, Ryegrass, Italian [2, 13]: 100 | Ryegrass, Italian plant response rating [2, 14]: 40 | Plant response rating, Ryegrass, Italian [2, 16]: 100 | Plant response rating, Ryegrass, Italian [2, 17]: 100 | Ryegrass, Italian plant response rating [2, 20]: 98 | Johnsongrass plant response rating [3, 11]: 100 | Johnsongrass plant response rating [3, 18]: 100 | Plant response rating, Johnsongrass [3, 12]: 100 | Plant response rating, Johnsongrass [3, 13]: 100 | Johnsongrass plant response rating [3, 14]: 70 | Plant response rating, Johnsongrass [3, 16]: 98 | Plant response rating, Johnsongrass [3, 17]: 100 | Johnsongrass plant response rating [3, 20]: 85 | Barley plant response rating ([4]; 8 g ai/ha, 0-100 scale): 90 | Barley plant response rating ([4]; 16 g ai/ha, 0-100 scale (0 no effect, 100 complete control)): 98 | Plant response rating, Barley ([4]; 31 g ai/ha): 100 | Plant response rating, Barley ([4]; 62 g ai/ha): 100 | Canarygrass plant response rating ([5]; 8 g ai/ha): 80 | Canarygrass plant response rating ([5]; 16 g ai/ha): 95 | Plant response rating, Canarygrass ([5]; 31 g ai/ha, scale 0 to 100): 100 | Plant response rating, Canarygrass [5, 21]: 100 | Windgrass plant response rating ([6]; 8 g ai/ha): 70 | Windgrass plant response rating ([6]; 16 g ai/ha): 100 | Plant response rating, Windgrass ([6]; 31 g ai/ha, scale 0 to 100): 100 | Plant response rating, Windgrass [6, 21]: 100 | Chickweed plant response rating ([7]; 8 g ai/ha): 0 | Chickweed plant response rating ([7]; 16 g ai/ha): 0 | Plant response rating, Chickweed ([7]; 31 g ai/ha, scale 0 to 100): 0 | Plant response rating, Chickweed [7, 21]: 90 | Plant response rating, Crabgrass, Large [8, 22]: 100 | Plant response rating, Crabgrass, Large [8, 23]: 100 | Plant response rating, Crabgrass, Large [8, 24]: 50 | Plant response rating, Crabgrass, Large [8, 25]: 100 | Plant response rating, Barnyardgrass [9, 22]: 100 | Plant response rating, Barnyardgrass [9, 23]: 100 | Plant response rating, Barnyardgrass [9, 24]: 50 | Plant response rating, Barnyardgrass [9, 25]: 100 | Plant response rating, Corn (corn (Zea mays); [22]): 80 | Plant response rating, Corn (corn (Zea mays); [23]): 100 | Plant response rating, Corn (corn (Zea mays); [24]): 40 | Plant response rating, Corn (corn (Zea mays); [25]): 50 | Plant response rating, Pigweed [10, 22]: 0 | Plant response rating, Pigweed [10, 23]: 0 | Plant response rating, Pigweed [10, 24]: 0 | Plant response rating, Pigweed [10, 25]: 0
